Results published in patent US8710233B2 (Gruenenthal GmbH, priority 2005, dated 2014).
Like-named read-outs stand apart in the source and are kept apart here.

Key:
Format in all cases: cell-based
[1] = target: T1, vanilloid receptor 1 (VR1/TRPV1) of the rat species (Rattus norvegicus, UniProt O35433); assay: FLIPR Ca2+ influx assay on rat dorsal root ganglia cells (pharmacological method I)
T1 construct: The spinal column is removed from decapitated rats; from tissue; host or cells: primary cells dissociated from rat dorsal root ganglia
Summary of the method: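 Primary rat dorsal root ganglion cells loaded with 2 μM Fluo-4, Ca2+ influx read on FLIPR as peak fluorescence. Triplicates, at least 3 independent experiments.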

vanilloid receptor (VR1) = target: T2, vanilloid receptor (VR1) (Homo sapiens, UniProt Q8NER1); assay: FLIPR Ca2+ influx assay on CHO K1 cells transfected with the VR1 gene (pharmacological method II)
T2 construct: expressed in transfected cells; host or cells: CHO K1 cells (ECACC), stably transfected

VR1/TRPV1 receptor = VR1/TRPV1 receptor (Homo sapiens, UniProt Q8NER1); assay: IC50 (human) after pH stimulus
[2] = table 4, capsaicin, read-out: Ki (rat) Cap.
[3] = table 4, capsaicin, read-out: Ki (human) Cap.
[4] = Ki (rat) Cap., table 4, capsaicin
[5] = read-out: inhibition in percent, IC50 (human) after pH stimulus
[6] = @ 1 μM, ne = no effect, read-out: inhibition in percent, IC50 (human) after pH stimulus
[7] = @ 10 μM, read-out: inhibition in percent, IC50 (human) after pH stimulus

T1 sequence (O35433 whole entry): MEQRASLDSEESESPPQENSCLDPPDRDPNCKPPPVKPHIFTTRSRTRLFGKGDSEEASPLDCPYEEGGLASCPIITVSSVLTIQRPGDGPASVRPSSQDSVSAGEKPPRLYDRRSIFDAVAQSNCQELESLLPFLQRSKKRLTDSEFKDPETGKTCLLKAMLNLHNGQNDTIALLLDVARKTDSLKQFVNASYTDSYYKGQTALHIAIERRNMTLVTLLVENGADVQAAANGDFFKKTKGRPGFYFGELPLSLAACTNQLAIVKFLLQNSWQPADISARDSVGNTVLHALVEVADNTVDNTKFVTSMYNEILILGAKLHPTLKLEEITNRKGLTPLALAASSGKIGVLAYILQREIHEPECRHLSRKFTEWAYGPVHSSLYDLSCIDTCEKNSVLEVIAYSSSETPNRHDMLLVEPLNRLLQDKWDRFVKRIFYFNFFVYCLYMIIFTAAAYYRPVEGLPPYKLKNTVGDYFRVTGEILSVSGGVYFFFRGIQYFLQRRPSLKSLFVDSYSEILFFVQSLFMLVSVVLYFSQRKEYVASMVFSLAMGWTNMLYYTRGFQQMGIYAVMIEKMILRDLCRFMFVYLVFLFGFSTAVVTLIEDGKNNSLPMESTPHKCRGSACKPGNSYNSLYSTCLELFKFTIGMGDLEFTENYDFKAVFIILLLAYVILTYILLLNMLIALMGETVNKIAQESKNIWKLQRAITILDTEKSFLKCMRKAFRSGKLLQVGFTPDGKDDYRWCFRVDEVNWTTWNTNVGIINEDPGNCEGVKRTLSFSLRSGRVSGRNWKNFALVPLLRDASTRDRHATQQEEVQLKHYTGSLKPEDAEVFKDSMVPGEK
T2 sequence (Q8NER1 whole entry): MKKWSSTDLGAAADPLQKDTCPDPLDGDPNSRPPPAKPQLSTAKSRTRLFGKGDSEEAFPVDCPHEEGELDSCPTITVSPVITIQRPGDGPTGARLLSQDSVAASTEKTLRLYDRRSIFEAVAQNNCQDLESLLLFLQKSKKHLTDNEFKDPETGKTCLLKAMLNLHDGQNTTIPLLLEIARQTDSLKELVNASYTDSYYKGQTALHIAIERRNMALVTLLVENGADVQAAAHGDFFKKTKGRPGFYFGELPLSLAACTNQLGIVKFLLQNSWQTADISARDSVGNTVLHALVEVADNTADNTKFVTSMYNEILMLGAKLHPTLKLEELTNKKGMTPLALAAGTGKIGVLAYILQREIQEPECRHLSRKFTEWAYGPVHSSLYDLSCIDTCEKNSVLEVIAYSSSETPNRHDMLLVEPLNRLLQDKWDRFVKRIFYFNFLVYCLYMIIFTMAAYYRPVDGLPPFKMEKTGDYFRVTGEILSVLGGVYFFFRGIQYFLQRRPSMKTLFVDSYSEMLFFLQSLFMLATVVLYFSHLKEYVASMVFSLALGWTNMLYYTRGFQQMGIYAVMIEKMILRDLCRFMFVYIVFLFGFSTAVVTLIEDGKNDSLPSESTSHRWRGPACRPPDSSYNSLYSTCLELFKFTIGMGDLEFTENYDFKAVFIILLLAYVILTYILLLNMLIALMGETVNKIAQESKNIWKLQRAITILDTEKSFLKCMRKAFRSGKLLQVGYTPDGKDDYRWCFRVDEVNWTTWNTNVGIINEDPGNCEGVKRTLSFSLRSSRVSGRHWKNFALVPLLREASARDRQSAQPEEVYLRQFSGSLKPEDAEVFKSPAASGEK
Sequence of VR1/TRPV1 receptor (Q8NER1 whole entry): as above

| Compound | Ki [1, 2] | Ki (vanilloid receptor (VR1); [3]) | IC50 (VR1/TRPV1 receptor; table 4) | also measured |
| --- | --- | --- | --- | --- |
| CC(C(=O)NCc1ccc(C(F)(F)F)nc1N(C)C)c1ccc(NS(C)(=O)=O)c(F)c1 (centres unmarked) [Example 85, N-(2-dimethylamino-6-trifluoromethyl-pyridin-3-ylmethyl)-2-(3-fluoro-4-methylsulfonamido-phenyl)-propionamide] | 67.9 nM | 19.1 nM | 2390 nM |  |
| CC(C)COc1nc(C(F)(F)F)ccc1CNC(=O)C(C)c1ccc(NS(C)(=O)=O)c(F)c1 (centres unmarked) [Example 95, 2-(3-fluoro-4-methylsulfonamido-phenyl)-N-(2-isobutoxy-6-trifluoromethyl-pyridin-3-ylmethyl)-propionamide] | 0.8 nM | 0.5 nM | 52.6 nM |  |
| C[C@H](C(=O)NCc1ccc(C(F)(F)F)nc1N1CCOCC1)c1ccc(NS(C)(=O)=O)c(F)c1 [Example 72, (S)-2-(3-Fluor-4-(methylsulfonamido)phenyl)-N-((2-morpholino-6-(trifluoromethyl)pyridin-3-yl)methyl)propanamide] |  |  |  | Ki ([1]; Table 2, displacement of capsaicin (100 nM), Cheng-Prusoff, read-out: Ki (rat)): 124 nM; Ki (vanilloid receptor (VR1); Table 2, displacement of capsaicin (100 nM), Cheng-Prusoff, read-out: Ki (human)): 32.6 nM; IC50 (VR1/TRPV1 receptor; Table 2): 1660 nM |
| CCOc1nc(C(F)(F)F)ccc1CNC(=O)C(C)c1ccc(NS(C)(=O)=O)c(F)c1 (centres unmarked) [Example 163, N-(2-ethoxy-6-trifluoromethyl-pyridin-3-ylmethyl)-2-(3-fluoro-4-methylsulfonamido-phenyl)-propionamide] |  | 12.7 nM | 277 nM | Ki [1, 4]: 8.5 nM |
| CC(C(=O)NCc1ccc(C(F)(F)F)nc1N1CCNCC1)c1ccc(NS(C)(=O)=O)c(F)c1 (centres unmarked) [Example 74] |  |  |  | inhibition in percent, Ki (rat) Cap. ([1]; @ 10 μM): 70% @ 10 μM; inhibition in percent, Ki (human) Cap. (vanilloid receptor (VR1); @ 10 μM): 71% @ 10 μM; inhibition in percent, IC50 (human) after pH stimulus (VR1/TRPV1 receptor; @ 10 μM): 35% @ 10 μM |
| COc1ccc(-c2nc(C(F)(F)F)ccc2CNC(=O)C(C)c2ccc(NS(C)(=O)=O)c(F)c2)cc1F (centres unmarked) [Example 254, 2-(3-fluoro-4-methylsulfonamido-phenyl)-N-[2-(3-fluoro-4-methoxy-phenyl)-6-trifluoromethyl-pyridin-3-ylmethyl]-propionamide] | 1.3 nM | 4.2 nM |  | inhibition at 0.1 µM (VR1/TRPV1 receptor; [5]): 19%; inhibition at 1 µM (VR1/TRPV1 receptor; [6]): 63% |
| CCOC(=O)C1(c2ccccc2)CCN(c2nc(C(F)(F)F)ccc2CNC(=O)C(C)c2ccc(NS(C)(=O)=O)c(F)c2)CC1 (centres unmarked) [Example 189, 3′-{[2-(3-fluoro-4-methylsulfonamido-phenyl)-propionylamino]-methyl}-4-phenyl-6′-trifluoromethyl-3,4,5,6-tetrahydro-2H-[1,2′]bipyridinyl-4-carbonic acid ethyl ester] |  |  | 166 nM | Ki [1, 4]: 3 nM; Ki (vanilloid receptor (VR1)): 4.7 nM |
| CC(C(=O)NCc1ccc(C(C)(C)C)cc1N1CCCCC1)c1ccc(NS(C)(=O)=O)c(F)c1 (centres unmarked) [Example 63, N-(4-tert-butyl-2-(piperidin-1-yl)benzyl)-2-(3-fluoro-4-(methylsulfonamido)-phenyl)propanamide] | 23.9 nM | 28.6 nM |  | inhibition at 1 µM (VR1/TRPV1 receptor; [6]): 70% |
| CC(C(=O)NCc1ccc(C(F)(F)F)nc1N1CCC(N2CCCCC2)CC1)c1ccc(NS(C)(=O)=O)c(F)c1 (centres unmarked) [Example 164, 2-(3-fluoro-4-methylsulfonamido-phenyl)-N-(6″-trifluoromethyl-3,4,5,6,3′,4′,5′,6′-octahydro-2H,2′H-[1,4′;1′,2″]terpyridin-3″-ylmethyl)-propionamide] |  |  |  | inhibition at 10 µM ([1]; @ 10 μM, read-out: inhibition in percent, Ki (rat) Cap.): 85%; inhibition at 10 µM (vanilloid receptor (VR1); CHO-K1, @ 10 μM, read-out: inhibition in percent, Ki (human) Cap.): 84%; inhibition at 10 µM (VR1/TRPV1 receptor; [7]): 30%; inhibition at 25 µM (VR1/TRPV1 receptor; @ 25 μM, read-out: inhibition in percent, IC50 (human) after pH stimulus): 28% |
| CC(C(=O)NCc1ccc(C(F)(F)F)nc1-c1ccc2c(c1)OCCO2)c1ccc(NS(C)(=O)=O)c(F)c1 (centres unmarked) [Example 265, N-[2-(2,3-dihydro-benzo[1,4]dioxin-6-yl)-6-trifluoromethyl-pyridin-3-ylmethyl]-2-(3-fluoro-4-methylsulfonamido-phenyl)-propionamide] | 2.5 nM | 5 nM |  | inhibition at 0.1 µM (VR1/TRPV1 receptor; [5]): 17%; inhibition at 1 µM (VR1/TRPV1 receptor; [6]): 33% |
| Cc1ccc(Nc2nc(C(F)(F)F)ccc2CNC(=O)C(C)c2ccc(NS(C)(=O)=O)c(F)c2)cc1C (centres unmarked) [Example 135, N-[2-(3,4-dimethyl-phenylamino)-6-trifluoromethyl-pyridin-3-ylmethyl]-2-(3-fluoro-4-methylsulfonamido-phenyl)-propionamide] | 48.9 nM | 39.3 nM | 1160 nM |  |
| CCCCOc1cc(C(F)(F)F)ccc1CNC(=O)C(C)c1ccc(NS(C)(=O)=O)c(F)c1 (centres unmarked) [Example 40, N-(2-butoxy-4-(trifluoromethyl)benzyl)-2-(3-fluoro-4-(methylsulfonamido)-phenyl)propanamide] | 0.4 nM | 1 nM | 48 nM |  |
| CC(C(=O)NCc1ncc(C(F)(F)F)cc1Cl)c1ccc(NS(C)(=O)=O)c(F)c1 (centres unmarked) [Example 77] |  |  |  | inhibition in percent, Ki (rat) Cap. ([1]; @ 10 μM): 57% @ 10 μM; inhibition in percent, Ki (human) Cap. (vanilloid receptor (VR1); @ 10 μM): 21% @ 10 μM; inhibition in percent, IC50 (human) after pH stimulus (VR1/TRPV1 receptor; @ 1 μM, ne = no effect): ne @ 1 μM |

Further compounds by falling Ki (vanilloid receptor (VR1); [3]), results first:

| Ki [1, 2] | Ki (vanilloid receptor (VR1); [3]) | IC50 (VR1/TRPV1 receptor; table 4) | Compound | also measured |
| --- | --- | --- | --- | --- |
| 4.5 nM | 3.5 nM | 377 nM | CC(C(=O)NCc1ccc(C(F)(F)F)nc1N1CCC(C#N)(c2ccccc2)CC1)c1ccc(NS(C)(=O)=O)c(F)c1 (centres unmarked) [Example 285, N-(4-cyano-4-phenyl-6′-trifluoromethyl-3,4,5,6-tetrahydro-2H-[1,2′]bipyridinyl-3′-ylmethyl)-2-(3-fluoro-4-methylsulfonamido-phenyl)-propionamide] |  |
| 4.5 nM | 2.9 nM |  | CC(C(=O)NCc1ccc(C(F)(F)F)nc1N1CCCCC1C)c1ccc(NS(C)(=O)=O)c(F)c1 (centres unmarked) [Example 283, 2-(3-fluoro-4-methylsulfonamido-phenyl)-N-(2-methyl-6′-trifluoromethyl-3,4,5,6-tetrahydro-2H-[1,2′]bipyridinyl-3′-ylmethyl)-propionamide] | inhibition at 1 µM (VR1/TRPV1 receptor; [6]): 51%; inhibition at 10 µM (VR1/TRPV1 receptor; [7]): 51% |
| 2 nM | 2.8 nM |  | CC(C(=O)NCc1ccc(C(F)(F)F)nc1N1CCN(c2ncccc2C(F)(F)F)CC1)c1ccc(NS(C)(=O)=O)c(F)c1 (centres unmarked) [Example 213, 2-(3-fluoro-4-methylsulfonamido-phenyl)-N-{6-trifluoromethyl-2-[4-(3-trifluoromethyl-pyridin-2-yl)-piperazin-1-yl]-pyridin-3-ylmethyl}-propionamide] | inhibition in percent, IC50 (human) after pH stimulus (VR1/TRPV1 receptor; @ 1 μM, ne = no effect): 37%; inhibition at 10 µM (VR1/TRPV1 receptor; [7]): 49% |
| 1.3 nM | 2.5 nM | 132 nM | CC(C(=O)NCc1ccc(C(F)(F)F)nc1OCc1ccc(Cl)cc1)c1ccc(NS(C)(=O)=O)c(F)c1 (centres unmarked) [Example 258, N-[2-(4-chloro-benzyloxy)-6-trifluoromethyl-pyridin-3-ylmethyl]-2-(3-fluoro-4-methylsulfonamido-phenyl)-propionamide] |  |
| 0.7 nM | 2.2 nM | 92.4 nM | CCCCCOc1cc(C(C)(C)C)ccc1CNC(=O)C(C)c1ccc(NS(C)(=O)=O)c(F)c1 (centres unmarked) [Example 153, N-(4-tert-butyl-2-pentyloxy-benzyl)-2-(3-fluoro-4-methylsulfonamido-phenyl)-propionamide] |  |
| 2.4 nM | 1.4 nM | 47 nM | CC(C(=O)NCc1ccc(C(F)(F)F)nc1CCc1ccccc1)c1ccc(NS(C)(=O)=O)c(F)c1 (centres unmarked) [Example 192, 2-(3-fluoro-4-methylsulfonamido-phenyl)-N-(2-phenethyl-6-trifluoromethyl-pyridin-3-ylmethyl)-propionamide] |  |
| 1.4 nM | 1 nM | 92.3 nM | COc1ccc(-c2nc(C(F)(F)F)ccc2CNC(=O)C(C)c2ccc(NS(C)(=O)=O)c(F)c2)cc1 (centres unmarked) [Example 151, 2-(3-fluoro-4-methylsulfonamido-phenyl)-N-[2-(4-methoxy-phenyl)-6-trifluoromethyl-pyridin-3-ylmethyl]-propionamide] |  |
| 11.4 nM | 0.9 nM | 57.4 nM | CC(C(=O)NCc1ccc(C(F)(F)F)nc1N(C)c1ccccc1)c1ccc(NS(C)(=O)=O)c(F)c1 (centres unmarked) [Example 205, 2-(3-fluoro-4-methylsulfonamido-phenyl)-N-[2-(methyl-phenyl-amino)-6-trifluoromethyl-pyridin-3-ylmethyl]-propionamide] |  |
| 0.4 nM | 0.6 nM | 31 nM | CC(C(=O)NCc1ccc(C(F)(F)F)nc1N1CCC(C(F)(F)F)CC1)c1ccc(NS(C)(=O)=O)c(F)c1 (centres unmarked) [Example 190, N-(4,6′-bis-trifluoromethyl-3,4,5,6-tetrahydro-2H-[1,2′]bipyridinyl-3′-ylmethyl)-2-(3-fluoro-4-methylsulfonamido-phenyl)-propionamide] |  |
| 1.8 nM | 0.3 nM | 26.2 nM | CCCN(CCC)c1cc(C(F)(F)F)ccc1CNC(=O)C(C)c1ccc(NS(C)(=O)=O)c(F)c1 (centres unmarked) [Example 37, N-(2-(dipropylamino)-4-(trifluoromethyl)benzyl)-2-(3-fluoro-4-(methylsulfonamido)phenyl)propanamide] |  |
| 0.2 nM | 0.3 nM | 8 nM | CC(C(=O)NCc1ccc(C(F)(F)F)nc1N1CCC(C)(C)CC1)c1ccc(NS(C)(=O)=O)c(F)c1 (centres unmarked) [Example 210, N-(4,4-dimethyl-6′-trifluoromethyl-3,4,5,6-tetrahydro-2H-[1,2′]bipyridinyl-3′-ylmethyl)-2-(3-fluoro-4-methylsulfonamido-phenyl)-propionamide] |  |
